RH and Ki data for 2 compounds are collected here from BindingDB's records for doi:10.1021/jm991098z (Friedrich-Alexander University, 2000).

The target in experiment [1] is T1, D(4) dopamine receptor (Homo sapiens, UniProt P21917).
T1 sequence (P21917 whole entry): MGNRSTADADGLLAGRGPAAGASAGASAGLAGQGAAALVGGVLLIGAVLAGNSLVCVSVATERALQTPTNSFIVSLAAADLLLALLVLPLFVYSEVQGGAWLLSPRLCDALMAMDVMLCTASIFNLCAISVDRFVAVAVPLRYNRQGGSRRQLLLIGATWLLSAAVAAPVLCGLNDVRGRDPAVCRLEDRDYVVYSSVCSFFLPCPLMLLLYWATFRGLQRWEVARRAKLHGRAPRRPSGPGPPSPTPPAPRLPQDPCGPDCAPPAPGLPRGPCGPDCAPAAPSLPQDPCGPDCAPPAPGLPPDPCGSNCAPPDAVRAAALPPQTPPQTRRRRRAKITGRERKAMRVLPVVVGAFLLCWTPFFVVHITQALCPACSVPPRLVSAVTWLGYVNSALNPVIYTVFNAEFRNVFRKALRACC
Description: Binding Affinity was tested on relative proportion of High Affinity Site of Dopamine receptor D4.4.

The target in experiment [2] is T2, D(2) dopamine receptor (Homo sapiens, UniProt P14416). Description: Binding Affinity was tested on relative proportion of High Affinity Site of Dopamine receptor D2L.
T2 sequence (P14416 whole entry): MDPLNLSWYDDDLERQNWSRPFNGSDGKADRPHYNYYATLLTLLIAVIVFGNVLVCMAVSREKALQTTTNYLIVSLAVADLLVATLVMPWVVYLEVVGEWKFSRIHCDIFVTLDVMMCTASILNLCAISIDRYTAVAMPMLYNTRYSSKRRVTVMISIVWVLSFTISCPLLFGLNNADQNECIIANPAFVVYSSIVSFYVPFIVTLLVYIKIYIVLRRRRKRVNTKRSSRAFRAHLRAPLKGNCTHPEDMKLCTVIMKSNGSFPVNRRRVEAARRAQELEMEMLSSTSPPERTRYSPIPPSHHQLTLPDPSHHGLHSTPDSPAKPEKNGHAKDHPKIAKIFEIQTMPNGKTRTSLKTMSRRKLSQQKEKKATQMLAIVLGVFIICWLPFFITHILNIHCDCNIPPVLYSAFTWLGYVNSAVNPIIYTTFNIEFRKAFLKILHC
Experiment [3] addresses T2, D(2) dopamine receptor. Description: Binding Affinity was tested on relative proportion of High Affinity Site of Dopamine receptor D2S.
Experiment [4] can be described thus: Binding Affinity was tested on relative proportion of High Affinity Site of Dopamine receptor D3.

On to `C#CC1=CCC(N(CCC)CCC)CC1` (configuration not stated) [(4-Ethynyl-cyclohex-3-enyl)-dipropyl-amine], for which the values for the RH in experiment [1], in experiment [2] and in experiment [3] were 38%, 38% and 34%, respectively.
For the compound `CCCN(CCC)C1CC=C(C#C[Si](C)(C)C)CC1` (configuration not stated) [Dipropyl-(4-trimethylsilanylethynyl-cyclohex-3-enyl)-amine], the results for the RH in experiment [1], in experiment [2] and in experiment [3] were 54%, 16% and 17%, respectively. In experiment [4], the inhibition constant (Ki) – broadly, the equilibrium dissociation constant of an inhibitor or competing ligand from its target – was 0.023 µM.
